Assays:
diabetic Zucker rats = test: Oral glucose tolerance test after 3 weeks dosing in diabetic Zucker rats; type: in vivo, rat; conditions: male diabetic Zucker rats, 1.5 mg/kg bid for 3 weeks, vs vehicle
Procedure: (§1) A study was performed in a colony of diabetic Zucker rats housed in Vancouver, Canada. This is a model of hyperinsulinemia and impaired glucose tolerance/mild type 2 diabetes. The aim was to investigate whether treatment with the test compound 6-chloro-3-(1-methylcylodopropyl)amino-4H-thieno[3,2-e]-1,2,4-thiadiazine 1,1-dioxide could lead to a reduction in hyperinsulinemia and an improvement in insulin secretory responsiveness to glucose in the perfused pancreas. Male diabetic Zucker rats were dosed for 3 weeks with either 1.5 mg/kg 6-chloro-3-(1-methylcylodopropyl)amino-4H-thieno[3,2-e]-1,2,4-thiadiazine 1,1-dioxide bid (n=8) or vehicle (n=16). Oral glucose tolerance was assessed in the animals the day after the last dose was given.

perfused pancreas = test: Perfused pancreas from treated diabetic Zucker rats; type: in vivo, rat
Procedure: as §1

[1] = target: KATP-channels on pancreatic beta-cells (Homo sapiens, UniProt Q09428); conditions: by activation of KATP-channels on pancreatic beta-cells; Pirotte et al. 1993, 1994; cited from earlier work
KATP-channels on pancreatic beta-cells, sequence (Q09428 whole entry): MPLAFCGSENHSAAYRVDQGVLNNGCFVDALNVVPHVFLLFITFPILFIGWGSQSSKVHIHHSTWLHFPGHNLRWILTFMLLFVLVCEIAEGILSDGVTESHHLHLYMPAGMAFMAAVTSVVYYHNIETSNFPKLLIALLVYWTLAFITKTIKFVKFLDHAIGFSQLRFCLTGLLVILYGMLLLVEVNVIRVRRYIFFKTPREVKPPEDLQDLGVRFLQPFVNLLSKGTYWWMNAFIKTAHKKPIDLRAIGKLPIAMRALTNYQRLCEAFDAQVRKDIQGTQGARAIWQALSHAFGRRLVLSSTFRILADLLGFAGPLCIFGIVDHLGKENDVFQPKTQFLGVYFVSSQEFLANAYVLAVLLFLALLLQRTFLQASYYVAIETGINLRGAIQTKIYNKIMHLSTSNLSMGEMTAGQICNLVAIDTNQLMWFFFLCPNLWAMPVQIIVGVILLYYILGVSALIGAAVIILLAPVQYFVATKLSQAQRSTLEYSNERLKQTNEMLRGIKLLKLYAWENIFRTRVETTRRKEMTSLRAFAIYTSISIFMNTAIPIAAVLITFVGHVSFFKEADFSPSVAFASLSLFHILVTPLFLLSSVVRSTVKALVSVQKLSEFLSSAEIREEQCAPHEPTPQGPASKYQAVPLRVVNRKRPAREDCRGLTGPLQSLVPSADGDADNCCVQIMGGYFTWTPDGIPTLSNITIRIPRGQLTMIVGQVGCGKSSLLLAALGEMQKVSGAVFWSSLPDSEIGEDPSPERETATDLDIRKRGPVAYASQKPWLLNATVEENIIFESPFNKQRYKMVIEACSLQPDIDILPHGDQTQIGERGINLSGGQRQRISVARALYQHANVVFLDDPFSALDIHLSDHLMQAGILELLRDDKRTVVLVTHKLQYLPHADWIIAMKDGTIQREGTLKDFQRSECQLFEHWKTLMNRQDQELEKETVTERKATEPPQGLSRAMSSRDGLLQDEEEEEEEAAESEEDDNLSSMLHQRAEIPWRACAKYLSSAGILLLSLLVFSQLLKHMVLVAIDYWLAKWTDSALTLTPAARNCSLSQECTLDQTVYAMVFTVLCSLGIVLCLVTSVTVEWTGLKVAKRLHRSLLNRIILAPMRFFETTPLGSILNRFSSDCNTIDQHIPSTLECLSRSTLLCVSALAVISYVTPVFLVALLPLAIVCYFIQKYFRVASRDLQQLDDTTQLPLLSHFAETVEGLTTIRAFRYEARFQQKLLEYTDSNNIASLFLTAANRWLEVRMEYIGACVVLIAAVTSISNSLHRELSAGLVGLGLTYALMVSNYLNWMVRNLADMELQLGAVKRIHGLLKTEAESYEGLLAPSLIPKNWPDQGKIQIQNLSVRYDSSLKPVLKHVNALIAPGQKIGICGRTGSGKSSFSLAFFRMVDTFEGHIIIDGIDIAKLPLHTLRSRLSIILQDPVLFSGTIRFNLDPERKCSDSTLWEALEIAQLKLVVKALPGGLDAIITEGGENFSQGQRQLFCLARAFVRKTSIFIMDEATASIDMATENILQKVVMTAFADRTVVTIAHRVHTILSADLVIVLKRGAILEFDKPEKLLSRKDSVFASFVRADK
KATP-channels on pancreatic beta-cells, sequence (Q14654 whole entry partner): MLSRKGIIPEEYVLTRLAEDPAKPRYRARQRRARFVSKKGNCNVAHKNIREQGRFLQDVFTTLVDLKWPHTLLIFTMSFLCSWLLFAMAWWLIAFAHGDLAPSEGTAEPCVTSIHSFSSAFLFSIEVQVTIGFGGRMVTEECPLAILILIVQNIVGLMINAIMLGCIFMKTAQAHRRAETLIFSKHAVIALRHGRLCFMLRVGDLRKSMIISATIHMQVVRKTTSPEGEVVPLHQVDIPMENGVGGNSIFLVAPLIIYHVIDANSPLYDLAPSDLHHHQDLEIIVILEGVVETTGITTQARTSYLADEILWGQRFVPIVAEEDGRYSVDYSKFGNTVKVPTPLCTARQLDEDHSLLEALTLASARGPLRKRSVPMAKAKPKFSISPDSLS

| SMILES | oral glucose tolerance (diabetic Zucker rats; assessed the day after the last dose) | hyperinsulinemia (associated with the oral glucose tolerance test) (diabetic Zucker rats; day after the last dose) | hyperinsulinemia in perfused pancreas (perfused pancreas; pancreata from rats treated 1.5 mg/kg bid for 3 weeks, evaluated two days after OGTT) | insulin secretory responsiveness to glucose in perfused pancreas (perfused pancreas; pancreata from treated rats, two days after OGTT, data expressed relative to baseline) | insulin release [1] |
| --- | --- | --- | --- | --- | --- |
| CC1(NC2=NS(=O)(=O)c3sc(Cl)cc3N2)CC1 [6-chloro-3-(1-methylcylodopropyl)amino-4H-thieno[3,2-e]-1,2,4-thiadiazine 1,1-dioxide] | significantly improved | significant reduction in hyperinsulinemia | reduced hyperinsulinemia | improved insulin secretory responsiveness to glucose | – |
| CC1=Nc2ccc(Cl)cc2S(=O)(=O)N1 [diazoxide, 7-chloro-3-methyl-2H-1,2,4-benzothiadiazine 1,1-dioxide] | – | – | – | – | inhibit insulin release |
